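Five concentrations, 48 hours, 96-well plates. The concentration for 50% growth inhibition is given as GI50. The concentration for full growth arrest is given as TGI.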
Legend:
Assay in all cases: NCI anticancer screen, dose series, 48 h
786-0 renal = tested on: 786-0 renal
A498 renal = tested on: A498 renal
A549 NSCLC = tested on: A549 NSCLC
ACHN renal = tested on: ACHN renal
BT-549 breast = tested on: BT-549 breast
CAKI-1 renal = tested on: CAKI-1 renal
CCRF-CEM leukemia = tested on: CCRF-CEM leukemia
COLO 205 colon = tested on: COLO 205 colon
DU-145 prostate = tested on: DU-145 prostate
EKVX NSCLC = tested on: EKVX NSCLC
HCC-2998 colon = tested on: HCC-2998 colon
HCT-116 colon = tested on: HCT-116 colon
HCT-15 colon = tested on: HCT-15 colon
HL-60(TB) leukemia = tested on: HL-60(TB) leukemia
HOP-62 NSCLC = tested on: HOP-62 NSCLC
HOP-92 NSCLC = tested on: HOP-92 NSCLC
HS 578T breast = tested on: HS 578T breast
HT29 colon = tested on: HT29 colon
IGROV1 ovarian = tested on: IGROV1 ovarian
K-562 leukemia = tested on: K-562 leukemia
KM12 colon = tested on: KM12 colon
LOX IMVI melanoma = tested on: LOX IMVI melanoma
M14 melanoma = tested on: M14 melanoma
MALME-3M melanoma = tested on: MALME-3M melanoma
MCF7 breast = tested on: MCF7 breast
MDA-MB-231 breast = tested on: MDA-MB-231 breast
MDA-MB-435 = tested on: MDA-MB-435
MOLT-4 leukemia = tested on: MOLT-4 leukemia
NCI-H226 lung = tested on: NCI-H226 lung
NCI-H23 lung = tested on: NCI-H23 lung
NCI-H460 lung = tested on: NCI-H460 lung
NCI-H522 lung = tested on: NCI-H522 lung
NCI/ADR-RES ovarian = tested on: NCI/ADR-RES ovarian
OVCAR-3 ovarian = tested on: OVCAR-3 ovarian
OVCAR-4 ovarian = tested on: OVCAR-4 ovarian
OVCAR-5 ovarian = tested on: OVCAR-5 ovarian
OVCAR-8 ovarian = tested on: OVCAR-8 ovarian
PC-3 prostate = tested on: PC-3 prostate
RPMI-8226 leukemia = tested on: RPMI-8226 leukemia
RXF 393 renal = tested on: RXF 393 renal
SF-268 CNS = tested on: SF-268 CNS
SF-295 CNS = tested on: SF-295 CNS
SF-539 CNS = tested on: SF-539 CNS
SK-MEL-2 melanoma = tested on: SK-MEL-2 melanoma
SK-MEL-28 melanoma = tested on: SK-MEL-28 melanoma
SK-MEL-5 melanoma = tested on: SK-MEL-5 melanoma
SK-OV-3 ovarian = tested on: SK-OV-3 ovarian
SN12C renal = tested on: SN12C renal
SNB-19 CNS = tested on: SNB-19 CNS
SNB-75 CNS = tested on: SNB-75 CNS
SW-620 colon = tested on: SW-620 colon
T-47D breast = tested on: T-47D breast
TK-10 renal = tested on: TK-10 renal
U251 CNS = tested on: U251 CNS
UACC-257 melanoma = tested on: UACC-257 melanoma
UACC-62 melanoma = tested on: UACC-62 melanoma
UO-31 renal = tested on: UO-31 renal

CC(=O)OC1CC2C3CCC4C[C@@H](NC(=O)C=C(C)C)CC[C@]4(C)C3CC[C@]2(C)[C@H]1C(C)N(C)C (some centres undefined)
GI50 (786-0 renal): 1.65 µM | TGI (786-0 renal): 3.17 µM | GI50 (A498 renal): 1.71 µM | TGI (A498 renal): 4.51 µM | GI50 (A549 NSCLC): 2.39 µM | TGI (A549 NSCLC): 6.99 µM | GI50 (ACHN renal): 2.73 µM | TGI (ACHN renal): 7.36 µM | GI50 (BT-549 breast): 4.21 µM | TGI (BT-549 breast): 11.1 µM | GI50 (CAKI-1 renal): 3.71 µM | TGI (CAKI-1 renal): 13.2 µM | GI50 (CCRF-CEM leukemia): 1.81 µM | TGI (CCRF-CEM leukemia): 8.15 µM | GI50 (COLO 205 colon): 1.51 µM | TGI (COLO 205 colon): 3.14 µM | GI50 (DU-145 prostate): 3.41 µM | TGI (DU-145 prostate): 14.1 µM | GI50 (EKVX NSCLC): 2.25 µM | TGI (EKVX NSCLC): 11.3 µM | GI50 (HCC-2998 colon): 1.75 µM | TGI (HCC-2998 colon): 3.57 µM | GI50 (HCT-116 colon): 0.854 µM | TGI (HCT-116 colon): 2.22 µM | GI50 (HCT-15 colon): 0.721 µM | TGI (HCT-15 colon): 2.75 µM | GI50 (HL-60(TB) leukemia): 2.23 µM | TGI (HL-60(TB) leukemia): 5.46 µM | GI50 (HOP-62 NSCLC): 1.8 µM | TGI (HOP-62 NSCLC): 3.64 µM | GI50 (HOP-92 NSCLC): 0.89 µM | TGI (HOP-92 NSCLC): 4.06 µM | GI50 (HS 578T breast): 2 µM | TGI (HS 578T breast): 5.25 µM | GI50 (HT29 colon): 0.376 µM | TGI (HT29 colon): 1.47 µM | GI50 (IGROV1 ovarian): 1.28 µM | TGI (IGROV1 ovarian): 6.5 µM | GI50 (K-562 leukemia): 0.509 µM | TGI (K-562 leukemia): 2.22 µM | GI50 (KM12 colon): 2.55 µM | TGI (KM12 colon): 10.4 µM | GI50 (LOX IMVI melanoma): 1.07 µM | TGI (LOX IMVI melanoma): 2.53 µM | GI50 (M14 melanoma): 1.6 µM | TGI (M14 melanoma): 3.39 µM | GI50 (MALME-3M melanoma): 2.04 µM | TGI (MALME-3M melanoma): 4.53 µM | GI50 (MCF7 breast): 1.71 µM | TGI (MCF7 breast): 5.84 µM | GI50 (MDA-MB-231 breast): 2.1 µM | TGI (MDA-MB-231 breast): 4.72 µM | GI50 (MDA-MB-435): 2.17 µM | TGI (MDA-MB-435): 4.82 µM | GI50 (MOLT-4 leukemia): 1.32 µM | TGI (MOLT-4 leukemia): 4.18 µM | GI50 (NCI-H226 lung): 3.6 µM | TGI (NCI-H226 lung): 15 µM | GI50 (NCI-H23 lung): 2.55 µM | TGI (NCI-H23 lung): 8.56 µM | GI50 (NCI-H460 lung): 0.885 µM | TGI (NCI-H460 lung): 2.65 µM | GI50 (NCI-H522 lung): 2.78 µM | TGI (NCI-H522 lung): 11.4 µM | GI50 (NCI/ADR-RES ovarian): 4.13 µM | TGI (NCI/ADR-RES ovarian): 16.5 µM | GI50 (OVCAR-3 ovarian): 1.99 µM | TGI (OVCAR-3 ovarian): 7.56 µM | GI50 (OVCAR-4 ovarian): 2.82 µM | TGI (OVCAR-4 ovarian): 17.5 µM | GI50 (OVCAR-5 ovarian): 3.46 µM | TGI (OVCAR-5 ovarian): 10.4 µM | GI50 (OVCAR-8 ovarian): 4.87 µM | TGI (OVCAR-8 ovarian): > 31.5 µM | GI50 (PC-3 prostate): 2.14 µM | TGI (PC-3 prostate): 8.97 µM | GI50 (RPMI-8226 leukemia): 1.66 µM | TGI (RPMI-8226 leukemia): 5.67 µM | GI50 (RXF 393 renal): 1.59 µM | TGI (RXF 393 renal): 3.66 µM | GI50 (SF-268 CNS): 1.58 µM | TGI (SF-268 CNS): 3.4 µM | GI50 (SF-295 CNS): 2.11 µM | TGI (SF-295 CNS): 4.75 µM | GI50 (SF-539 CNS): 1.27 µM | TGI (SF-539 CNS): 2.62 µM | GI50 (SK-MEL-2 melanoma): 2.31 µM | TGI (SK-MEL-2 melanoma): 4.58 µM | GI50 (SK-MEL-28 melanoma): 1.75 µM | TGI (SK-MEL-28 melanoma): 3.39 µM | GI50 (SK-MEL-5 melanoma): 1.37 µM | TGI (SK-MEL-5 melanoma): 2.71 µM | GI50 (SK-OV-3 ovarian): 2.79 µM | TGI (SK-OV-3 ovarian): 7.38 µM | GI50 (SN12C renal): 2.4 µM | TGI (SN12C renal): 8 µM | GI50 (SNB-19 CNS): 3.63 µM | TGI (SNB-19 CNS): 9.06 µM | GI50 (SNB-75 CNS): 2 µM | TGI (SNB-75 CNS): 6.51 µM | GI50 (SW-620 colon): 1.65 µM | TGI (SW-620 colon): 3.47 µM | GI50 (T-47D breast): 1.55 µM | TGI (T-47D breast): 6.08 µM | GI50 (TK-10 renal): 5.45 µM | TGI (TK-10 renal): 13.3 µM | GI50 (U251 CNS): 1.75 µM | TGI (U251 CNS): 5.79 µM | GI50 (UACC-257 melanoma): 2.18 µM | TGI (UACC-257 melanoma): 4.5 µM | GI50 (UACC-62 melanoma): 2.16 µM | TGI (UACC-62 melanoma): 4.45 µM | GI50 (UO-31 renal): 0.949 µM | TGI (UO-31 renal): 2.95 µM
